Like-named read-outs stand apart in the source and are kept apart here.
Experiments:
[1] = target: T1, human recombinant histamine H1 receptor (Homo sapiens, UniProt P35367); assay: Histamine H1 radioligand binding ([3H]Pyrilamine)
T1 construct: expressed in transfected cells; host or cells: CHO cells
How it was run: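 Receptor expressed in CHO cells, assayed in 50 mM Tris-HCl pH 7.4 with 2 mM MgCl2, 100 mM NaCl, 250 mM sucrose. Compounds tested at 1 μM in 1% DMSO; non-specific binding set with 1 μM pyrilamine. Filter-bound radioactivity counted; values are percent inhibition of specific binding.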

[2] = target: T2, human recombinant adrenergic α2B receptor (Homo sapiens, UniProt P18089); assay: Adrenergic α2B radioligand binding ([3H]Rauwolscine); design: Inhibition of ligand binding, Adren. alpha2B: concentration or dose not given beside the values; details: for inhibition at 1 µM: compounds screened at 1 μM, read-out: Inhibition of ligand binding, Adren. alpha2B (percent inhibition of specific binding)
T2 construct: expressed in transfected cells; host or cells: CHO-K1 cells
T2 sequence (P18089 1-450): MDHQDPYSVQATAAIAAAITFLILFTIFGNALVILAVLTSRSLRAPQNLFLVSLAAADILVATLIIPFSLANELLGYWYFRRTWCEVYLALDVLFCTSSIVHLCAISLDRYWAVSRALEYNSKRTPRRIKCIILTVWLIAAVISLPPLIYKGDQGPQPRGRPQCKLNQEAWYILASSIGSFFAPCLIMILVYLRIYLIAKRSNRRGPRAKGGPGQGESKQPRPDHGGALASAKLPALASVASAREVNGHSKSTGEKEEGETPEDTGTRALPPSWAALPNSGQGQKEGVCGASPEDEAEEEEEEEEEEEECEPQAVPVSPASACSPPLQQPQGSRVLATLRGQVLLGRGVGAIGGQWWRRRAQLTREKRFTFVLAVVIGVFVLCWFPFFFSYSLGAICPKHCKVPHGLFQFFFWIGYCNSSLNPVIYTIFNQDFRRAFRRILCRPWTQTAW
How it was run: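 Membranes from CHO-K1 cells expressing the receptor, in 50 mM Tris-HCl pH 7.4 with 12.5 mM MgCl2, 1 mM EDTA, 0.2% BSA, incubated with compounds and 2.5 nM [3H]Rauwolscine for 60 minutes at 25 °C.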

[3] = target: T3, human recombinant dopamine D2L receptor (Homo sapiens, UniProt P14416); assay: Dopamine D2L radioligand binding ([3H]Spiperone); details: for inhibition at 1 µM: compounds screened at 1 μM, read-out: Inhibition of ligand binding, Dop. D2L (percent inhibition of specific binding)
T3 construct: expressed in transfected cells; host or cells: CHO cells
Experimental: Non-specific binding was estimated in the presence of 10 μM Haloperidol. Receptor proteins were filtered and washed, the filters were then counted to determine [^3H]Spiperone specifically bound. […] Biochemical assay results are presented as the percent inhibition of specific binding in Table 6.

[4] = target: T4, human recombinant serotonin (5-Hydroxytryptamine) 5-HT2A receptor (Homo sapiens, UniProt P28223); assay: Serotonin 5-HT2A radioligand binding ([3H]Ketanserin); details: for inhibition at 1 µM: read-out: Inhibition of ligand binding, Ser. 5-HT2A (percent inhibition of specific binding)
T4 construct: expressed in transfected cells; host or cells: CHO-K1 cells
Experimental: (§1) Compounds of the invention were incubated with 0.5 nM [^3H]Ketanserin for 60 minutes at 25° C. Non-specific binding was estimated in the presence of 1 μM Mianserin. Receptor proteins were filtered and washed, the filters were then counted to determine [^3H]Ketanserin specifically bound. […] Biochemical assay results are presented as the percent inhibition of specific binding in Table 6.

[5] = target: T5, human recombinant serotonin (5-Hydroxytryptamine) 5-HT2C receptor (Homo sapiens, UniProt P28335); assay: Serotonin 5-HT2C radioligand binding ([3H]Mesulergine); design: Inhibition of ligand binding, Ser. 5-HT2C: concentration or dose not given beside the values; details: for inhibition at 1 µM: compounds screened at 1 μM, read-out: Inhibition of ligand binding, Ser. 5-HT2C (percent inhibition of specific binding)
T5 construct: expressed in transfected cells; host or cells: CHO-K1 cells
T5 sequence (P28335 33-458): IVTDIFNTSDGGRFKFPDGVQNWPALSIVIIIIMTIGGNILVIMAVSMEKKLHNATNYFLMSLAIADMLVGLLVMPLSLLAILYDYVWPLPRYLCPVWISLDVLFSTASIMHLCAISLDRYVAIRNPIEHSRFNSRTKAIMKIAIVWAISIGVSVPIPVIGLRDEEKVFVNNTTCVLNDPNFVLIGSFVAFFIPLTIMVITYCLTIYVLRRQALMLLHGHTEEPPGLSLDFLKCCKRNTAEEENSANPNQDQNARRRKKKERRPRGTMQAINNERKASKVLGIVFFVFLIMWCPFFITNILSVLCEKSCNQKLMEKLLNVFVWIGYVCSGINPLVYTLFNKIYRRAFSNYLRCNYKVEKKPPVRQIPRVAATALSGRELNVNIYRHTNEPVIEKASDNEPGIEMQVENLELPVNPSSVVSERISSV
Experimental: as §1, with “1” for “0.5”, “[^3H]Mesulergine” for “[^3H]Ketanserin”

[6] = target: T6, human recombinant serotonin (5-Hydroxytryptamine) 5-HT6 receptor (Homo sapiens, UniProt P50406); assay: Serotonin 5-HT6 radioligand binding ([3H]LSD); design: Inhibition of ligand binding, Ser. 5-HT6: concentration or dose not given beside the values; details: for inhibition at 1 µM: compounds screened at 1 μM, read-out: Inhibition of ligand binding, Ser. 5-HT6 (percent inhibition of specific binding)
T6 construct: expressed in transfected cells; host or cells: human HeLa cells
Text: Receptor proteins were filtered and washed, the filters were then counted to determine [3H]LSD specifically bound. […] Biochemical assay results are presented as the percent inhibition of specific binding in Table 6.

[7] = compounds screened at 1 μM, read-out: Inhibition of ligand binding, Hist. H1 (percent inhibition of specific binding)
[8] = percent inhibition of specific binding

T6 sequence (P50406 whole entry): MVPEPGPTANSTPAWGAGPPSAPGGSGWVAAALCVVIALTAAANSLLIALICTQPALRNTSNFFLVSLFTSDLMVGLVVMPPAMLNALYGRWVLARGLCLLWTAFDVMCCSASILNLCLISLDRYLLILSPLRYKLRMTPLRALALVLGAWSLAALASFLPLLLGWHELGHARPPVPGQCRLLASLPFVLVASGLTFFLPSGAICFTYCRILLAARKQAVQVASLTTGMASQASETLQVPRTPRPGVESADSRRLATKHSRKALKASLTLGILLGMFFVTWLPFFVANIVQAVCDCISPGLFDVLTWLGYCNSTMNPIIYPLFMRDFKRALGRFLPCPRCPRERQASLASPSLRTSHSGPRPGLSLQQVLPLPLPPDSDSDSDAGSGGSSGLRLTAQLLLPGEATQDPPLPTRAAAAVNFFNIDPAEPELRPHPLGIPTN
T1 sequence (P35367 whole entry): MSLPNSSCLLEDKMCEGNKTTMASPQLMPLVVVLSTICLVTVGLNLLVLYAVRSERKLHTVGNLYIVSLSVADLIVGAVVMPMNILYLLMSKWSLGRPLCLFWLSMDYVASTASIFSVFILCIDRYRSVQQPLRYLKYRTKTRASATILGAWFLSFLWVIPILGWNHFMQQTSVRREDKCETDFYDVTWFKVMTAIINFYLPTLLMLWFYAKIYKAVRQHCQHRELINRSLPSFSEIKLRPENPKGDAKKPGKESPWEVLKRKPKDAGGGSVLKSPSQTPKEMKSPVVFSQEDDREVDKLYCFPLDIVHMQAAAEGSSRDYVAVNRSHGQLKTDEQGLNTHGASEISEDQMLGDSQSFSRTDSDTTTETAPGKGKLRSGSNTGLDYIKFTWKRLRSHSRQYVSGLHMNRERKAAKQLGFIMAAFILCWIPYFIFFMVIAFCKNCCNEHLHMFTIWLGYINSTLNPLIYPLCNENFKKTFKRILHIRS
T4 sequence (P28223 whole entry): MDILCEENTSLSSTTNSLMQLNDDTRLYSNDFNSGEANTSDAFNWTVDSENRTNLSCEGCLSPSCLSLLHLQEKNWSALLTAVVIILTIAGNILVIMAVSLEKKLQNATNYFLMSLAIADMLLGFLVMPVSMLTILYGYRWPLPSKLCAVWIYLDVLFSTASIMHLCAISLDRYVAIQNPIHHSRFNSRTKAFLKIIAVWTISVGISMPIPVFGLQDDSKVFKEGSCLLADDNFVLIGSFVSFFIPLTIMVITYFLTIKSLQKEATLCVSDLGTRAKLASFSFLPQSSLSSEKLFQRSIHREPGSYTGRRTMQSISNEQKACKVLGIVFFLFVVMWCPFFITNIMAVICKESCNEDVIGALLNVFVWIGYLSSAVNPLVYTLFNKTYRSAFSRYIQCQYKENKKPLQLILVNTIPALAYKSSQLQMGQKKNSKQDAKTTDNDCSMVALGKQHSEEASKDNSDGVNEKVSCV
T3 sequence (P14416 whole entry): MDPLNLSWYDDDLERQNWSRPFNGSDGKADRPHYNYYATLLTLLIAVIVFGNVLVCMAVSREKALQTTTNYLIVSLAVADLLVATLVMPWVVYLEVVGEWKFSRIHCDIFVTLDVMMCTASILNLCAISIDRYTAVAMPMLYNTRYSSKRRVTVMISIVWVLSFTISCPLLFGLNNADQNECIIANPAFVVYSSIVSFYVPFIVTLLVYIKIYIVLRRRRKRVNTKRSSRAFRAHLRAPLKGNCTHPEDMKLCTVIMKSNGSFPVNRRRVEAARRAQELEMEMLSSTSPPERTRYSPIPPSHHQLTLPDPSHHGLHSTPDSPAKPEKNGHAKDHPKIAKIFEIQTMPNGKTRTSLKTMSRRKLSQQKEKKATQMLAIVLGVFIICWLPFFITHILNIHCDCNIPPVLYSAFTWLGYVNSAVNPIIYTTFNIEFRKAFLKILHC

With `CN1CCc2c(c3cc(F)ccc3n2CCc2nc(-c3ccccc3)cs2)C1` [Compound C1-7] the inhibition at 1 µM [1, 7] was 99%, the inhibition at 1 µM [2] was 113% and the inhibition at 1 µM [3] was 25%. It also gave an inhibition at 1 µM [4] of 96%, an inhibition at 1 µM [5] of 91% and an inhibition at 1 µM [6] of 91%.
In the case of `CN1CCc2c(c3ccncc3n2CCc2ccncc2)C1` [Compound 483, 7-aza-2-methyl-5-(2-(pyridin-4-yl)ethyl)-2,3,4,5-tetrahydro-1H-pyrido[4,3-b]indole], the inhibition at 1 µM [1, 7] is reported as -5%, the inhibition at 1 µM [2] is reported as 12% and the inhibition at 1 µM [3] is reported as 0%. The inhibition at 1 µM [4] was 2%, the inhibition at 1 µM [5] was 9% and the inhibition at 1 µM [6] was 13%.
With `CN1CCc2c(c3cc(Cl)ccc3n2CCCc2ccc(C(F)(F)F)nc2)C1` [Compound 324, 8-chloro-5-(3-(6-(trifluoromethyl)pyridin-3-yl)propyl)-2,3,4,5-tetrahydro-2-methyl-1H-pyrido[4,3-b]indole] the inhibition at 1 µM ([1]; percent inhibition of specific binding, screened at 1 μM, read-out: Inhibition of ligand binding, Hist. H1) was 101%, the “Inhibition of ligand binding, Adren. alpha2B” value [2, 8] was 98% and the “Inhibition of ligand binding, Dop. D2L” value [3, 8] was 28%. The “Inhibition of ligand binding, Ser. 5-HT2A” value [4, 8] was 86%, the “Inhibition of ligand binding, Ser. 5-HT2C” value [5, 8] was 57% and the “Inhibition of ligand binding, Ser. 5-HT6” value [6, 8] was 93%.
